The supplement of paper PMC10307832

How the values were obtained:
Experiment in all cases: relative viability (nuclei count vs DMSO), 5 days (fraction); higher = more cells survive
UMC-11 = test system: UMC-11
Outline: (§1)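 Dosing by pin tool came one day after lung cancer cell lines were seeded in 1536-well plates, using either one drug or a fixed anchor-drug dose plus five library-drug doses (not always all listed) in √10 steps. After 5 days, nuclei were counted on 4× images. Relative viability is treated-well nuclei count divided by vehicle-well nuclei count, and values are medians of duplicate plates.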

ABC-1 = test system: ABC-1
Outline: as §1

HOP-62 = test system: HOP-62
Outline: as §1

NCI-H2085 = test system: NCI-H2085
Outline: as §1

NCI-H1975 = test system: NCI-H1975
Outline: as §1

COR-L 105 = test system: COR-L 105
Outline: as §1

EMC-BAC-2 = test system: EMC-BAC-2
Outline: as §1

NCI-H1915 = test system: NCI-H1915
Outline: as §1

NCI-H322M = test system: NCI-H322M
Outline: as §1

NCI-H358 = test system: NCI-H358
Outline: as §1

NCI-H3122 = test system: NCI-H3122
Outline: as §1

HCC-78 = test system: HCC-78
Outline: as §1

EPLC-272H = test system: EPLC-272H
Outline: as §1

LXF-289 = test system: LXF-289
Outline: as §1

HCC-15 = test system: HCC-15
Outline: as §1

ChaGo-K-1 = test system: ChaGo-K-1
Outline: as §1

NCI-H1755 = test system: NCI-H1755
Outline: as §1

NCI-H2023 = test system: NCI-H2023
Outline: as §1

NCI-H1666 = test system: NCI-H1666
Outline: as §1

NCI-H441 = test system: NCI-H441
Outline: as §1

NCI-H2126 = test system: NCI-H2126
Outline: as §1

For Cc1sc2c(c1C)C(c1ccc(Cl)cc1)=N[C@@H](CC(=O)OC(C)(C)C)c1nnc(C)n1-2 [JQ1] + Nc1ncn([C@H]2C[C@H](O)[C@@H](CO)O2)c(=O)n1 [Decitabine] (partner 2 µM), the relative viability (UMC-11; first compound 0.04 µM) was 0.514, the relative viability (UMC-11; first compound 0.1265 µM) was 0.468 and the relative viability (UMC-11; first compound 0.4 µM) was 0.328. The relative viability (UMC-11; first compound 1.265 µM) was 0.294, the relative viability (UMC-11; first compound 4 µM) was 0.309 and the relative viability (ABC-1; first compound 0.04 µM) was 1.19. The relative viability (ABC-1; first compound 0.1265 µM) was 0.889, the relative viability (ABC-1; first compound 0.4 µM) was 0.691 and the relative viability (ABC-1; first compound 1.265 µM) was 0.837. The relative viability (ABC-1; first compound 4 µM) was 0.582, the relative viability (HOP-62; first compound 0.04 µM) was 0.238 and the relative viability (HOP-62; first compound 0.1265 µM) was 0.19. It also gave a relative viability (HOP-62; first compound 0.4 µM) of 0.201, a relative viability (HOP-62; first compound 1.265 µM) of 0.156 and a relative viability (HOP-62; first compound 4 µM) of 0.128. For the same compound, the relative viability (NCI-H2085; first compound 0.04 µM) was 0.538, the relative viability (NCI-H2085; first compound 0.1265 µM) was 0.595 and the relative viability (NCI-H2085; first compound 0.4 µM) was 0.509. The relative viability (NCI-H2085; first compound 1.265 µM) was 0.454, the relative viability (NCI-H2085; first compound 4 µM) was 0.473 and the relative viability (NCI-H1975; first compound 0.04 µM) was 0.393. The relative viability (NCI-H1975; first compound 0.1265 µM) was 0.282, the relative viability (NCI-H1975; first compound 0.4 µM) was 0.331 and the relative viability (NCI-H1975; first compound 1.265 µM) was 0.261. For the same compound, the relative viability (NCI-H1975; first compound 4 µM) was 0.232, the relative viability (COR-L 105; first compound 0.04 µM) was 0.558 and the relative viability (COR-L 105; first compound 0.1265 µM) was 0.457. It also gave a relative viability (COR-L 105; first compound 0.4 µM) of 0.399, a relative viability (COR-L 105; first compound 1.265 µM) of 0.33 and a relative viability (COR-L 105; first compound 4 µM) of 0.386. The relative viability (EMC-BAC-2; first compound 0.04 µM) was 0.947, the relative viability (EMC-BAC-2; first compound 0.4 µM) was 0.944 and the relative viability (EMC-BAC-2; first compound 1.265 µM) was 0.726. It also gave a relative viability (EMC-BAC-2; first compound 4 µM) of 0.605, a relative viability (NCI-H1915; first compound 0.04 µM) of 0.279 and a relative viability (NCI-H1915; first compound 0.4 µM) of 0.255. The relative viability (NCI-H1915; first compound 1.265 µM) was 0.246, the relative viability (NCI-H1915; first compound 4 µM) was 0.248 and the relative viability (NCI-H322M; first compound 0.04 µM) was 0.631. The relative viability (NCI-H322M; first compound 0.1265 µM) was 0.886, the relative viability (NCI-H322M; first compound 0.4 µM) was 0.641 and the relative viability (NCI-H322M; first compound 1.265 µM) was 0.594. It also gave a relative viability (NCI-H322M; first compound 4 µM) of 0.592, a relative viability (NCI-H358; first compound 0.04 µM) of 0.212 and a relative viability (NCI-H358; first compound 0.1265 µM) of 0.227. The relative viability (NCI-H358; first compound 0.4 µM) was 0.235, the relative viability (NCI-H358; first compound 1.265 µM) was 0.188 and the relative viability (NCI-H358; first compound 4 µM) was 0.206. The relative viability (NCI-H3122; first compound 0.04 µM) was 0.489, the relative viability (NCI-H3122; first compound 0.1265 µM) was 0.395 and the relative viability (NCI-H3122; first compound 0.4 µM) was 0.517. For the same compound, the relative viability (NCI-H3122; first compound 1.265 µM) was 0.343, the relative viability (NCI-H3122; first compound 4 µM) was 0.38 and the relative viability (HCC-78; first compound 0.04 µM) was 0.604. The relative viability (HCC-78; first compound 0.1265 µM) was 0.529, the relative viability (HCC-78; first compound 0.4 µM) was 0.691 and the relative viability (HCC-78; first compound 1.265 µM) was 0.563. The relative viability (HCC-78; first compound 4 µM) was 0.588, the relative viability (EPLC-272H; first compound 0.04 µM) was 0.365 and the relative viability (EPLC-272H; first compound 0.1265 µM) was 0.352. The relative viability (EPLC-272H; first compound 0.4 µM) was 0.323, the relative viability (EPLC-272H; first compound 1.265 µM) was 0.246 and the relative viability (EPLC-272H; first compound 4 µM) was 0.253. It also gave a relative viability (LXF-289; first compound 0.04 µM) of 0.368, a relative viability (LXF-289; first compound 0.1265 µM) of 0.401 and a relative viability (LXF-289; first compound 0.4 µM) of 0.344. It also gave a relative viability (LXF-289; first compound 1.265 µM) of 0.226, a relative viability (LXF-289; first compound 4 µM) of 0.222 and a relative viability (HCC-15; first compound 0.04 µM) of 0.617. The relative viability (HCC-15; first compound 0.1265 µM) was 0.491, the relative viability (HCC-15; first compound 0.4 µM) was 0.6 and the relative viability (HCC-15; first compound 1.265 µM) was 0.406. The relative viability (HCC-15; first compound 4 µM) was 0.408, the relative viability (ChaGo-K-1; first compound 0.04 µM) was 0.552 and the relative viability (ChaGo-K-1; first compound 0.1265 µM) was 0.472. For the same compound, the relative viability (ChaGo-K-1; first compound 0.4 µM) was 0.539, the relative viability (ChaGo-K-1; first compound 1.265 µM) was 0.392 and the relative viability (ChaGo-K-1; first compound 4 µM) was 0.36. The relative viability (NCI-H1755; first compound 0.04 µM) was 0.744, the relative viability (NCI-H1755; first compound 0.1265 µM) was 0.738 and the relative viability (NCI-H1755; first compound 0.4 µM) was 0.747. It also gave a relative viability (NCI-H1755; first compound 1.265 µM) of 0.731, a relative viability (NCI-H1755; first compound 4 µM) of 0.719 and a relative viability (NCI-H2023; first compound 0.04 µM) of 0.233. It also gave a relative viability (NCI-H2023; first compound 0.1265 µM) of 0.228, a relative viability (NCI-H2023; first compound 0.4 µM) of 0.198 and a relative viability (NCI-H2023; first compound 1.265 µM) of 0.14. It also gave a relative viability (NCI-H2023; first compound 4 µM) of 0.13, a relative viability (NCI-H1666; first compound 0.04 µM) of 0.763 and a relative viability (NCI-H1666; first compound 0.1265 µM) of 0.745. It also gave a relative viability (NCI-H1666; first compound 0.4 µM) of 0.577, a relative viability (NCI-H1666; first compound 1.265 µM) of 0.589 and a relative viability (NCI-H1666; first compound 4 µM) of 0.504. The relative viability (NCI-H441; first compound 0.04 µM) was 0.257, the relative viability (NCI-H441; first compound 0.1265 µM) was 0.266 and the relative viability (NCI-H441; first compound 0.4 µM) was 0.251. For the same compound, the relative viability (NCI-H441; first compound 1.265 µM) was 0.152, the relative viability (NCI-H441; first compound 4 µM) was 0.17 and the relative viability (NCI-H2126; first compound 0.04 µM) was 0.591. The relative viability (NCI-H2126; first compound 0.1265 µM) was 0.584, the relative viability (NCI-H2126; first compound 0.4 µM) was 0.561 and the relative viability (NCI-H2126; first compound 1.265 µM) was 0.411. For the same compound, the relative viability (NCI-H2126; first compound 4 µM) was 0.428.
